According to patent US9603821B2, “Inhibitor of τ protein phosphorylation” (NISHIZAKI BIOINFORMATION RESEARCH INSTITUTE, priority 2013, dated 2017):

How the values were obtained:
Human PTP1B = biological target: T1, Human PTP1B (Homo sapiens, UniProt P18031); assay: Assay of PTP1B activity under cell-free conditions (p-NPP dephosphorylation); type: biochemical; conditions: DCP-LA 1-100 μM, p-NPP 10 mM, FIG. 1
T1 construct: made in house; host or cells: E. coli BL21 (DE3)
T1 sequence (P18031 1-435): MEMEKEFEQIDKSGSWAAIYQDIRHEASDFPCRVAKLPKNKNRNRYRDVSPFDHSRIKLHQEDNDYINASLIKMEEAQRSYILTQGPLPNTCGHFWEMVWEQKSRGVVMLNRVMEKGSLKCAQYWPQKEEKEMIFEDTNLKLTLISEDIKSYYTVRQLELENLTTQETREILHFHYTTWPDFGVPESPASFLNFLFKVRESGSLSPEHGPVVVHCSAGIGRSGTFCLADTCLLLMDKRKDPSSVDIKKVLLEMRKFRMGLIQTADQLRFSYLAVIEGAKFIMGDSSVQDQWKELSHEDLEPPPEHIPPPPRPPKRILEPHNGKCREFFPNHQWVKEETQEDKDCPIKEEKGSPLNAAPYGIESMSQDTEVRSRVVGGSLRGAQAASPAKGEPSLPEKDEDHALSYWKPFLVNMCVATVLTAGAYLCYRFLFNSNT
Method: Protein tyrosine phosphatase was measured under cell-free conditions by a method partially modified from the methods described in previous reports (Baba Y, et al. J Am Chem Soc 2003; 125; 9740-9749; Rice R L, et al. Biochemistry 1997; 36: 15965-15974). Human PTP1B was cloned to a pGEX-6P-3 vector having a GST tag at the NH2 terminus, and expressed in competent E. coli BL21 (DE3) suitable for transformation and protein expression. GST fusion PTP1B was affinity-purified using glutathione sepharose 4B (GE Healthcare Bio-Science KK, Tokyo, Japan). It was reacted with p-nitrophenylphosphate (p-NPP) (Sigma, St. Louis, Mo., USA) as a substrate and PTP1B activity was measured. The enzyme was pre-incubated in a reaction medium [50 mM HEPES, 1 mM EDTA, 50 mM NaCl, 1 mM dithiothreitol, pH 7.2] at 37° C. for 30 min in the presence or absence of DCP-LA at a given concentration (1-100 μM) and with or without addition of Na3VO4 which is a PTP1B inhibitor. Then, p-NPP (10 mM) was added to the reaction medium, and the mixture was incubated for 60 min. The reaction was discontinued by the addition of 0.1N NaOH. Dephosphorylated p-NPP, i.e., p-NP, was quantified at an absorbance of 405 nm by using SpectraMax PLUS384 (Molecular Devices, Sunnyvale, Calif., USA).

Akt = Akt activation in rat hippocampus section, Western blotting; type: cell-based; conditions: 100 nM, 3 min, FIG. 3
Method: (§1) A rat hippocampus section (male Wister rat, 6-week-old, 400 μm) was incubated in an artificial cerebrospinal fluid (117 mM NaCl, 3.6 mM KCl, 1.2 mM NaH2PO4, 1.2 mM MgCl2, 2.5 mM CaCl2, 25 mM NaHCO3, and 11.5 mM glucose) oxygenated with 95% O2 and 5% CO2, in the presence or absence of DCP-LA (100 nM) at 34° C. for 3 min. In another experiment set, the section was incubated with Aβ1-42 (1 μM) for 3 hr in the presence or absence of DCP-LA (100 nM). After incubation, the section was homogenized by sonication in an ice-cooled cell lysis buffer containing 1% (v/v) protease inhibitor cocktail and 1% (v/v) phosphatase inhibitor cocktail, and the homogenate was centrifuged (3,000 rpm, 5 min, 4° C.). The protein concentration of the supernatant was measured using BCA protein assay kit (Thermo Fisher Scientific, Rockford, Ill., USA). The protein was separated by SDS-polyacrylamide gel electrophoresis (SDS-PAGE), and transferred onto polyvinylidene difluoride membranes. […]
(§2) After washing, the membranes were reacted with horseradish peroxidase-conjugated goat anti-mouse IgG antibody or goat anti-rabbit IgG antibody. The immunoreactivity was detected using ECL kit (GE Healthcare, Piscataway, N.J., USA), and visualized using a chemical luminescence detection system (chemiluminescence detection system; GE Healthcare).

GSK-3β = GSK-3β phosphorylation in rat hippocampus section, Western blotting; type: cell-based; conditions: 100 nM, 3 min, FIG. 4
Method: as §1, §2

τ protein = τ protein phosphorylation induced by Aβ1-42 in rat hippocampus section, Western blotting; type: cell-based; conditions: Aβ1-42 1 μM for 3 hr, DCP-LA 100 nM, FIG. 5
Method: as §1, §2

5XFAD mouse = assay: Water maze test in 5XFAD mouse; type: in vivo; conditions: oral, 30 min before water maze test, daily, DCP-LA 1 mg/kg, galanthamine 2.5 mg/kg, FIG. 6
From the text: XFAD transgenic mouse is an animal model of Alzheimer's disease (AD), and contains five mutations of familial Alzheimer's disease (FAD) [Swedish, Florida and London mutations of human amyloid precursor protein (APP), and M146L and L286V mutations of presenilin (PS); Oakley H et al., J. Neurosci. 2006; 26: 10129-10140]. In 5XFAD mouse, Swedish mutation increases production of total amyloid β peptide (Aβ), and the remaining mutations particularly promote production of Aβ1-42.
5XFAD mouse was purchased from The Jackson Laboratory (Bar Harbor, Me., USA), and maintained by crossing with heterozygous transgenic mouse with B6/SJLF1 breeding stock. Non-transgenic wild-type litter-mate was used as a control. All experiments were performed at the age of 5.5-6.5 months.
A circular plastic water tank (diameter 90 cm, depth 36 cm) was used. The inside of the water tank was completely painted in white, and water containing White India ink was filled up to 20 cm from the bottom (22-25° C.). A platform (diameter 11 cm) painted in white was placed in water such that it was 1 cm below the water surface. The water tank was placed in a test room, and several marks seen by the mouse from the water tank were put thereon. During the test, the position of the marks was not changed. A platform was placed a predetermined position from the equal distance from the center and the end of the water tank, namely, center of one quadrant. At one of the randomly selected 3 points, the mouse was released facing the wall of the water tank, and the time necessary for evacuating on the platform (acquisition latency) was measured. When smoothly evacuated, the mouse was left on the platform for 10 seconds. […] The test was performed twice a day, and the second test was started at 30 seconds after the first test. The test was continuously performed for 8 days, and the mean (±SEM) of acquisition latency of continuous 2 days until the mouse reached the platform was calculated. After 7 days, the platform was removed and the time necessary for reaching the place where the platform was located (retention latency) was measured.
DCP-LA and galanthamine were dissolved in polyethylene glycol (PEG). DCP-LA, galanthamine and PEG were administered with an oral gavage needle 30 min before the water maze test.

human recombinant PKCε = biological target: T2, human recombinant PKCε (Homo sapiens, UniProt Q02156); assay: GSK-3β assay under cell-free conditions with PKCε; type: biochemical; conditions: FIG. 7
T2 construct: His; purchased Calbiochem
T2 sequence (Q02156 1-737): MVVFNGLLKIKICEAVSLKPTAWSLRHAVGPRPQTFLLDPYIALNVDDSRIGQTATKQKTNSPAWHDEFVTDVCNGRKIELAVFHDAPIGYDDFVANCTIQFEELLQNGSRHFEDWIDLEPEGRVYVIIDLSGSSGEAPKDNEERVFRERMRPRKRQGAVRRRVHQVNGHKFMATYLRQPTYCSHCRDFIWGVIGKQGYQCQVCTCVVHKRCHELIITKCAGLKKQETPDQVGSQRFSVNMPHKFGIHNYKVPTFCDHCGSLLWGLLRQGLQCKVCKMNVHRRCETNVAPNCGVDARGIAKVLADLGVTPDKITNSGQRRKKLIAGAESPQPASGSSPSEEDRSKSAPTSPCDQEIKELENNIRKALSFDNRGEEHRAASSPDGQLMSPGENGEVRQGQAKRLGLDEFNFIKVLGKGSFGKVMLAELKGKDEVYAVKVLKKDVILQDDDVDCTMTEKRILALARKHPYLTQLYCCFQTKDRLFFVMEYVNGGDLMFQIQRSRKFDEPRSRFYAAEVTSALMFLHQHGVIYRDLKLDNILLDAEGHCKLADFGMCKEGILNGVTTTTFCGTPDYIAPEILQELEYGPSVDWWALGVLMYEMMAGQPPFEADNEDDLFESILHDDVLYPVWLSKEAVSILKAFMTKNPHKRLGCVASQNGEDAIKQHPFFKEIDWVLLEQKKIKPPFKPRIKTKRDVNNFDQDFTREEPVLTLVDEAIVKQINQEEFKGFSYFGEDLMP
Method: Human recombinant GSK-3β (Sigma, St. Louis, Mo., USA) was reacted with His-tagged human recombinant PKCε (Calbiochem, San Diego, Calif., USA) under cell-free conditions in the presence or absence of a given concentration (1-100 μM) of DCP-LA, and with or without addition of GF109203X, in a culture medium containing 20 mM Tris-HCl (pH 7.5), 5 mM Mg-acetate, 12.5 mM glycerol 2-phosphate and 250 μM ATP at 30° C. for 20 min. The protein was separated by SDS-polyacrylamide gel electrophoresis (SDS-PAGE), and transferred on a polyvinylidene difluoride membrane. The blotting membrane was blocked with TBS-T [150 mM NaCl, 0.1% (v/v) Tween20 and 20 mM Tris, pH 7.5] containing 5% (w/v) BSA, and sequentially reacted with anti-serine 9 phosphorylated GSK-3β antibody (Cell Signaling Technology, Inc., Danvers, Mass., USA) or anti-GSK-3β antibody (Cell Signaling Technology, Inc., Danvers, Mass., USA). After washing, the membrane was reacted with horseradish peroxidase conjugated goat anti-mouse IgG antibody or goat anti-rabbit IgG antibody. The immunoreactivity was detected using ECL kit (GE Healthcare, Piscataway, N.J., USA), and visualized using a chemical luminescence detection system (chemiluminescence detection system; GE Healthcare).

CCCCCC1CC1CC1CC1CCCCCCCC(=O)O (stereo not shown) [DCP-LA, 8-[2-(2-Pentyl-cyclopropylmethyl)-cyclopropyl]-octanoic acid]
PTP1B inhibition (phosphatase activity, percentage of control) (Human PTP1B): inhibits PTP1B in a concentration-dependent manner | Akt activation (phosphorylation of Thr308 and Ser473 relative to total Akt) (Akt): has an action to activate Akt | Ser9 phosphorylation of GSK-3β relative to total GSK-3β (GSK-3β): phosphorylates (inactivates) GSK-3β | Ser202/Thr205 phosphorylation of τ protein induced by Aβ1-42 relative to total τ protein (τ protein): suppresses phosphorylation of τ protein induced by Aβ1-42 | acquisition latency (5XFAD mouse): improved extension of both latencies to nearly normal levels | retention latency (5XFAD mouse): improved extension of both latencies to nearly normal levels | Ser9 phosphorylation of GSK-3β by PKCε (human recombinant PKCε; PKCε 1 μg/ml, DCP-LA 1-100 μM): phosphorylates (inactivates) GSK-3β in the presence of PKCε

CN(C)CCCn1cc(C2=C(c3c[nH]c4ccccc34)C(=O)NC2=O)c2ccccc21 [GF109203X, reference compound]
suppression of DCP-LA/PKCε-induced Ser9 phosphorylation of GSK-3β (human recombinant PKCε; GF109203X 100 nM in the presence of DCP-LA and PKCε): phosphorylation is suppressed by GF109203X

COc1ccc2c3c1O[C@H]1C[C@@H](O)C=C[C@@]31CCN(C)C2 [galanthamine, reference compound]
acquisition latency (5XFAD mouse): showed no effect | retention latency (5XFAD mouse): showed no effect
